ChEMBL document CHEMBL1154418 (2007)
Converted amounts (≈) assume the structure as drawn. The source made the active and inactive calls. The calls are words filed in the database; no cut-off is given here.

Tests used:
[1] = test system: Escherichia coli; assay: Antibacterial activity against tetracycline-resistant Escherichia coli clinical isolates expressing tet(B), tet(D), tet(E) gene by broth microdilution method; assay type: functional, organism-based
[2] = test system: Escherichia coli; assay: Antibacterial activity against tetracycline-resistant Escherichia coli clinical isolates expressing tet(A), tet(B), tet(D), tet(E) gene by broth microdilution method; assay type: functional, organism-based
[3] = test system: Escherichia coli; assay: Antibacterial activity against tetracycline-resistant Escherichia coli clinical isolates by broth microdilution method; assay type: functional
[4] = test system: Escherichia coli; assay: Antibacterial activity against tetracycline-resistant Escherichia coli clinical isolates without tet(B) gene by broth microdilution method; assay type: functional
[5] = test system: Escherichia coli; assay: Antibacterial activity against tetracycline-resistant Escherichia coli with single drug resistance determinant isolates by broth microdilution method; assay type: functional
[6] = test system: Escherichia coli; assay: Antibacterial activity against tetracycline-resistant Escherichia coli with multiple drug resistance determinant isolates by broth microdilution method; assay type: functional
[7] = test system: Escherichia coli; assay: Antibacterial activity against tetracycline-susceptible Escherichia coli clinical isolates by broth microdilution method; assay type: functional
[8] = test system: Escherichia coli; assay: Antibacterial activity against tetracycline-resistant Escherichia coli clinical isolates expressing tet(A), tet(B), tet(D) gene by broth microdilution method; assay type: functional, organism-based
[9] = test system: Escherichia coli; assay: Antibacterial activity against tetracycline-resistant Escherichia coli clinical isolates expressing tet(A), tet(B) gene by broth microdilution method; assay type: functional
[10] = test system: Escherichia coli; assay: Antibacterial activity against tetracycline-resistant Escherichia coli clinical isolates expressing tet(A) gene by broth microdilution method; assay type: functional
[11] = test system: Escherichia coli; assay: Antibacterial activity against tetracycline-resistant Escherichia coli clinical isolates expressing tet(B) gene by broth microdilution method; assay type: functional
[12] = test system: Escherichia coli; assay: Antibacterial activity against tetracycline-resistant Escherichia coli clinical isolates expressing tet(C) gene by broth microdilution method; assay type: functional, organism-based
[13] = test system: Escherichia coli; assay: Antibacterial activity against tetracycline-resistant Escherichia coli clinical isolates expressing tet(D) gene by broth microdilution method; assay type: functional
[14] = test system: Escherichia coli; assay: Antibacterial activity against tetracycline-resistant Escherichia coli clinical isolates expressing tet(E) gene by broth microdilution method; assay type: functional, organism-based
[15] = test system: Escherichia coli; assay: Antibacterial activity against tetracycline-resistant Escherichia coli clinical isolates expressing tet(M) gene by broth microdilution method; assay type: functional, organism-based
[16] = test system: Escherichia coli; assay: Antibacterial activity against tetracycline-resistant Escherichia coli clinical isolates expressing tet(A), tet(D) gene by broth microdilution method; assay type: functional
[17] = test system: Escherichia coli; assay: Antibacterial activity against tetracycline-resistant Escherichia coli clinical isolates expressing tet(A), tet(E) gene by broth microdilution method; assay type: functional, organism-based
[18] = test system: Escherichia coli; assay: Antibacterial activity against tetracycline-resistant Escherichia coli clinical isolates expressing tet(A), tet(M) gene by broth microdilution method; assay type: functional, organism-based
[19] = test system: Escherichia coli; assay: Antibacterial activity against tetracycline-resistant Escherichia coli clinical isolates expressing tet(B), tet(C) gene by broth microdilution method; assay type: functional, organism-based
[20] = test system: Escherichia coli; assay: Antibacterial activity against tetracycline-resistant Escherichia coli clinical isolates expressing tet(B), tet(D) gene by broth microdilution method; assay type: functional
[21] = test system: Escherichia coli; assay: Antibacterial activity against tetracycline-resistant Escherichia coli clinical isolates expressing tet(B), tet(E) gene by broth microdilution method; assay type: functional
[22] = test system: Escherichia coli; assay: Antibacterial activity against tetracycline-resistant Escherichia coli clinical isolates expressing tet(C), tet(E) gene by broth microdilution method; assay type: functional, organism-based
[23] = test system: Escherichia coli; assay: Antibacterial activity against tetracycline-resistant Escherichia coli clinical isolates expressing tet(D), tet(E) gene by broth microdilution method; assay type: functional, organism-based
[24] = test system: Escherichia coli; assay: Antibacterial activity against Escherichia coli ATCC 25922 by broth microdilution method; assay type: functional, organism-based

Row | Structure (SMILES) | Activity [1] | Activity [2] | MIC50 [3] [µg/mL] | MIC90 [3] [µg/mL] | MIC50 [4] [µg/mL] | MIC90 [4] [µg/mL] | MIC50 [5] [µg/mL] | MIC90 [5] [µg/mL] | MIC50 [6] [µg/mL] | MIC90 [6] [µg/mL] | MIC90 [7] [µg/mL] | Activity [8] | MIC50 [9] [µg/mL] | MIC90 [9] [µg/mL] | MIC50 [10] [µg/mL] | MIC90 [10] [µg/mL] | MIC50 [11] [µg/mL] | MIC90 [11] [µg/mL] | Activity [12] | MIC50 [13] [µg/mL] | further results
1 | CN(C)[C@@H]1C(O)=C(C(N)=O)C(=O)[C@@]2(O)C(O)=C3C(=O)c4c(O)cccc4[C@@](C)(O)[C@H]3C[C@@H]12 [TETRACYCLINE] | inactive | inactive | > 64 | > 64 | > 64 | > 64 | > 64 | > 64 | > 64 | > 64 | 4 (≈ 9 µM) | inactive | > 64 | > 64 | > 64 | 64 (≈ 144 µM) | > 64 | > 64 | inactive | > 64 | MIC90 [13]: > 64 µg/mL; Activity [14]: inactive; Activity [15]: inactive; MIC50 [16]: > 64 µg/mL; MIC90 [16]: > 64 µg/mL; Activity [17]: inactive; Activity [18]: inactive; Activity [19]: inactive; MIC50 [20]: > 64 µg/mL; MIC90 [20]: > 64 µg/mL; MIC50 [21]: > 64 µg/mL; MIC90 [21]: > 64 µg/mL; Activity [22]: inactive; Activity [23]: inactive
2 | CN(C)c1cc(NC(=O)CNC(C)(C)C)c(O)c2c1C[C@H]1C[C@H]3[C@H](N(C)C)C(O)=C(C(N)=O)C(=O)[C@@]3(O)C(O)=C1C2=O [TIGECYCLINE] | inactive | inactive | 0.5 (≈ 0.854 µM) | 1 (≈ 1.71 µM) | 0.5 (≈ 0.854 µM) | 0.5 (≈ 0.854 µM) | 0.25 (≈ 0.427 µM) | 0.5 (≈ 0.854 µM) | 0.25 (≈ 0.427 µM) | 0.5 (≈ 0.854 µM) | 0.5 (≈ 0.854 µM) | inactive | 0.25 (≈ 0.427 µM) | 0.5 (≈ 0.854 µM) | 0.5 (≈ 0.854 µM) | 0.5 (≈ 0.854 µM) | 0.25 (≈ 0.427 µM) | 0.5 (≈ 0.854 µM) | inactive | 0.25 (≈ 0.427 µM) | MIC50 [7]: 0.25 µg/mL (≈ 0.427 µM); Activity [24]: inactive; MIC90 [13]: 0.5 µg/mL (≈ 0.854 µM); Activity [14]: inactive; Activity [15]: inactive; MIC50 [16]: 0.5 µg/mL (≈ 0.854 µM); MIC90 [16]: 1 µg/mL (≈ 1.71 µM); Activity [17]: inactive; Activity [18]: inactive; Activity [19]: inactive; MIC50 [20]: 0.25 µg/mL (≈ 0.427 µM); MIC90 [20]: 0.5 µg/mL (≈ 0.854 µM); MIC50 [21]: 0.25 µg/mL (≈ 0.427 µM); MIC90 [21]: 0.25 µg/mL (≈ 0.427 µM); Activity [22]: inactive; Activity [23]: inactive
3 | CN(C)c1ccc(O)c2c1C[C@H]1C[C@H]3[C@H](N(C)C)C(O)=C(C(N)=O)C(=O)[C@@]3(O)C(O)=C1C2=O [MINOCYCLINE] | inactive | inactive | 4 (≈ 8.74 µM) | 8 (≈ 17.5 µM) | 4 (≈ 8.74 µM) | 8 (≈ 17.5 µM) | 8 (≈ 17.5 µM) | 32 (≈ 69.9 µM) | 8 (≈ 17.5 µM) | 32 (≈ 69.9 µM) | 2 (≈ 4.37 µM) | inactive | 16 (≈ 35 µM) | 32 (≈ 69.9 µM) | 2 (≈ 4.37 µM) | 4 (≈ 8.74 µM) | 16 (≈ 35 µM) | 32 (≈ 69.9 µM) | inactive | 8 (≈ 17.5 µM) | MIC50 [7]: 1 µg/mL (≈ 2.19 µM); Activity [24]: inactive; MIC90 [13]: 8 µg/mL (≈ 17.5 µM); Activity [14]: inactive; Activity [15]: inactive; MIC50 [16]: 4 µg/mL (≈ 8.74 µM); MIC90 [16]: 16 µg/mL (≈ 35 µM); Activity [17]: inactive; Activity [18]: inactive; Activity [19]: inactive; MIC50 [20]: 16 µg/mL (≈ 35 µM); MIC90 [20]: 64 µg/mL (≈ 140 µM); MIC50 [21]: 8 µg/mL (≈ 17.5 µM); MIC90 [21]: 32 µg/mL (≈ 69.9 µM); Activity [22]: inactive; Activity [23]: inactive
